In patent US20200055839A1 (priority 2017, published 2020):

These compounds were tested on NL-RLuc virus (assay: Inhibition of HIV replication (NL-RLuc virus, luciferase readout in MT-2 cells)). Conditions: Human immunodeficiency virus 1, MT2, 120 h, MT-2 cells infected with NL-RLuc virus, 5 days of incubation, 10% FBS, at least 2 experiments.
Assay type: cell-based
In short: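 EC50 derived via median effect equation from at least 2 experiments, using luciferase expression as virus-growth readout. Replication-competent NL-RLuc reporter virus (nef partly replaced by Renilla luciferase) infected MT-2 cells with serial compound dilutions; 5-day incubation in RPMI 1640 plus 10% FBS.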

Compound | EC50
Cc1ccc(-c2cnc(C)c([C@H](OC(C)(C)C)C(=O)O)c2N2CCC(C)(C)CC2)c(F)c1F [Example 159, (2S)-2-(tert-Butoxy)-2-[5-(2,3-difluoro-4-methylphenyl)-4-(4,4-dimethylpiperidin-1-yl)-2-methylpyridin-3-yl]acetic acid] | 2 nM
Cc1ncc(-c2cccc(F)c2C)c(N2CCC(C)(C)CC2)c1[C@H](OC(C)(C)C)C(=O)O [Example 160, (2S)-2-(tert-Butoxy)-2-[4-(4,4-dimethylpiperidin-1-yl)-5-(3-fluoro-2-methylphenyl)-2-methylpyridin-3-yl]acetic acid] | 13 nM
COc1cccc(-c2cnc(C)c([C@H](OC(C)(C)C)C(=O)O)c2N2CCC(C)(C)CC2)c1Cl [Example 161, (2S)-2-(tert-Butoxy)-2-[5-(2-chloro-3-methoxyphenyl)-4-(4,4-dimethylpiperidin-1-yl)-2-methylpyridin-3-yl]acetic acid] | 9 nM
Cc1ncc(-c2ccc(F)c(F)c2F)c(N2CCC(C)(C)CC2)c1[C@H](OC(C)(C)C)C(=O)O [Example 162, (2S)-2-(tert-Butoxy)-2-[4-(4,4-dimethylpiperidin-1-yl)-2-methyl-5-(2,3,4-trifluorophenyl)pyridin-3-yl]acetic acid] | 7 nM
Cc1cccc(-c2cnc(C)c([C@H](OC(C)(C)C)C(=O)O)c2N2CCC(C)(C)CC2)c1F [Example 163, (2S)-2-(tert-Butoxy)-2-[4-(4,4-dimethylpiperidin-1-yl)-5-(2-fluoro-3-methylphenyl)-2-methylpyridin-3-yl]acetic acid] | 6 nM
COc1cc(-c2cnc(C)c([C@H](OC(C)(C)C)C(=O)O)c2N2CCC(C)(C)CC2)ccn1 [Example 164, (2S)-2-(tert-Butoxy)-2-[4-(4,4-dimethylpiperidin-1-yl)-2′-methoxy-6-methyl-[3, 4′-bipyridine]-5-yl]acetic acid] | 4 nM
Cc1ncc(-c2cccc(F)c2Cl)c(N2CCC(C)(C)CC2)c1[C@H](OC(C)(C)C)C(=O)O [Example 165, (2S)-2-(tert-Butoxy)-2-[5-(2-chloro-3-fluorophenyl)-4-(4,4-dimethylpiperidin-1-yl)-2-methylpyridin-3-yl]acetic acid] | 8 nM
COc1c(F)cccc1-c1cnc(C)c([C@H](OC(C)(C)C)C(=O)O)c1N1CCC(C)(C)CC1 [Example 166, (2S)-2-(tert-Butoxy)-2-[4-(4,4-dimethylpiperidin-1-yl)-5-(3-fluoro-2-methoxyphenyl)-2-methylpyridin-3-yl]acetic acid] | 11 nM
COc1ccccc1-c1cnc(C)c([C@H](OC(C)(C)C)C(=O)O)c1N1CCC(C)(C)CC1 [Example 167, (2S)-2-(tert-Butoxy)-2-[4-(4,4-dimethylpiperidin-1-yl)-5-(2-methoxyphenyl)-2-methylpyridin-3-yl]acetic acid] | 5 nM
COc1cccc(-c2cnc(C)c([C@H](OC(C)(C)C)C(=O)O)c2N2CCC(C)(C)CC2)c1 [Example 168, (2S)-2-(tert-Butoxy)-2-[4-(4,4-dimethylpiperidin-1-yl)-5-(3-methoxyphenyl)-2-methylpyridin-3-yl]acetic acid] | 4 nM
Cc1ncc(-c2ccc(OC(C)C)c(F)c2F)c(N2CCC(C)(C)CC2)c1[C@H](OC(C)(C)C)C(=O)O [Example 169, (2S)-2-(tert-Butoxy)-2-{5-[2,3-difluoro-4-(propan-2-yloxy)phenyl]-4-(4,4-dimethylpiperidin-1-yl)-2-methylpyridin-3-yl}acetic acid] | 7 nM
Cc1cc(F)c(F)c(-c2cnc(C)c([C@H](OC(C)(C)C)C(=O)O)c2N2CCC(C)(C)CC2)c1 [Example 170, (2S)-2-(tert-Butoxy)-2-[5-(2,3-difluoro-5-methylphenyl)-4-(4,4-dimethylpiperidin-1-yl)-2-methylpyridin-3-yl]acetic acid] | 19 nM
COc1c(F)ccc(-c2cnc(C)c([C@H](OC(C)(C)C)C(=O)O)c2N2CCC(C)(C)CC2)c1F [Example 171, (2S)-2-(tert-Butoxy)-2-[5-(2,4-difluoro-3-methoxyphenyl)-4-(4,4-dimethylpiperidin-1-yl)-2-methylpyridin-3-yl]acetic acid] | 5 nM
Cc1ncc(-c2ccc(C(F)(F)F)c(F)c2F)c(N2CCC(C)(C)CC2)c1[C@H](OC(C)(C)C)C(=O)O [Example 172, (2S)-2-(tert-Butoxy)-2-{5-[2,3-difluoro-4-(trifluoromethyl)phenyl]-4-(4,4-dimethylpiperidin-1-yl)-2-methylpyridin-3-yl}acetic acid] | 14 nM
CCOc1c(C(F)(F)F)ccc(-c2cnc(C)c([C@H](OC(C)(C)C)C(=O)O)c2N2CCC(C)(C)CC2)c1F [Example 173, (2S)-2-(tert-butoxy)-2-[4-(4,4-dimethylpiperidin-1-yl)-5-[3-ethoxy-2-fluoro-4-(trifluoromethyl)phenyl]-2-methylpyridin-3-yl]acetic acid] | 21 nM
Cc1ncc(-c2cc(F)cc(F)c2F)c(N2CCC(C)(C)CC2)c1[C@H](OC(C)(C)C)C(=O)O [Example 174, (2S)-2-(tert-Butoxy)-2-[4-(4,4-dimethylpiperidin-1-yl)-2-methyl-5-(2,3,5-trifluorophenyl)pyridin-3-yl]acetic acid] | 11 nM

Compound | EC50
CCOc1ccc(-c2cnc(C)c([C@H](OC(C)(C)C)C(=O)O)c2N2CCC(C)(C)CC2)c(F)c1F [Example 175, (2S)-2-(tert-Butoxy)-2-[4-(4,4-dimethylpiperidin-1-yl)-5-(4-ethoxy-2,3-difluorophenyl)-2-methylpyridin-3-yl]acetic acid] | 6 nM
Cc1ncc(-c2ccc3ccncc3c2)c(N2CCC(C)(C)CC2)c1[C@H](OC(C)(C)C)C(=O)O [Example 176, (2S)-2-(tert-Butoxy)-2-[4-(4,4-dimethylpiperidin-1-yl)-5-(isoquinolin-7-yl)-2-methylpyridin-3-yl]acetic acid] | 5 nM
Cc1cccc(-c2cnc(C)c([C@H](OC(C)(C)C)C(=O)O)c2N2CCC(C)(C)CC2)c1 [Example 177, (2S)-2-(tert-Butoxy)-2-[4-(4,4-dimethylpiperidin-1-yl)-2-methyl-5-(3-methylphenyl)pyridin-3-yl]acetic acid] | 12 nM
COc1ccc(-c2cnc(C)c([C@H](OC(C)(C)C)C(=O)O)c2N2CCC(C)(C)CC2)cc1C [Example 178, (2S)-2-(tert-Butoxy)-2-[4-(4,4-dimethylpiperidin-1-yl)-5-(4-methoxy-3-methylphenyl)-2-methylpyridin-3-yl]acetic acid] | 2 nM
COc1ccc(-c2cnc(C)c([C@H](OC(C)(C)C)C(=O)O)c2N2CCC(C)(C)CC2)cc1F [Example 179, (2S)-2-(tert-Butoxy)-2-[4-(4,4-dimethylpiperidin-1-yl)-5-(3-fluoro-4-methoxyphenyl)-2-methylpyridin-3-yl]acetic acid] | 5 nM
Cc1ncc(-c2ccc3c(c2)OCO3)c(N2CCC(C)(C)CC2)c1[C@H](OC(C)(C)C)C(=O)O [Example 180, (2S)-2-[5-(2H-1,3-Benzodioxol-5-yl)-4-(4,4-dimethylpiperidin-1-yl)-2-methylpyridin-3-yl]-2-(tert-butoxy)acetic acid] | 3 nM
COc1ccc(-c2cnc(C)c([C@H](OC(C)(C)C)C(=O)O)c2N2CCC(C)(C)CC2)c(F)c1 [Example 181, (2S)-2-(tert-Butoxy)-2-[4-(4,4-dimethylpiperidin-1-yl)-5-(2-fluoro-4-methoxyphenyl)-2-methylpyridin-3-yl]acetic acid] | 6 nM
Cc1ncc(-c2cccc3ccccc23)c(N2CCC(C)(C)CC2)c1[C@H](OC(C)(C)C)C(=O)O [Example 182, (2S)-2-(tert-Butoxy)-2-[4-(4,4-dimethylpiperidin-1-yl)-2-methyl-5-(naphthalen-1-yl)pyridin-3-yl]acetic acid] | 27 nM
Cc1ncc(-c2ccc3ccccc3c2)c(N2CCC(C)(C)CC2)c1[C@H](OC(C)(C)C)C(=O)O [Example 183, (2S)-2-(tert-Butoxy)-2-[4-(4,4-dimethylpiperidin-1-yl)-2-methyl-5-(naphthalen-2-yl)pyridin-3-yl]acetic acid] | 6 nM
Cc1ncc(-c2cccc3cccnc23)c(N2CCC(C)(C)CC2)c1[C@H](OC(C)(C)C)C(=O)O [Example 184, (2S)-2-(tert-Butoxy)-2-[4-(4,4-dimethylpiperidin-1-yl)-2-methyl-5-(quinolin-8-yl)pyridin-3-yl]acetic acid] | 8 nM
Cc1ccc(-c2cnc(C)c([C@H](OC(C)(C)C)C(=O)O)c2N2CCC(C)(C)CC2)nc1 [Example 185, (2S)-2-(tert-Butoxy)-2-[4′-(4,4-dimethylpiperidin-1-yl)-5,6′-dimethyl-[2, 3′-bipyridine]-5′-yl]acetic acid] | 11 nM
Cc1ncc(-c2ccccn2)c(N2CCC(C)(C)CC2)c1[C@H](OC(C)(C)C)C(=O)O [Example 186, (2S)-2-(tert-Butoxy)-2-[4′-(4,4-dimethylpiperidin-1-yl)-6′-methyl-[2, 3′-bipyridine]-5′-yl]acetic acid] | 37 nM
Cc1ncc(-c2ncccn2)c(N2CCC(C)(C)CC2)c1[C@H](OC(C)(C)C)C(=O)O [Example 187, (2S)-2-(tert-Butoxy)-2-[4-(4,4-dimethylpiperidin-1-yl)-2-methyl-5-(pyrimidin-2-yl)pyridin-3-yl]acetic acid] | 107 nM
COc1cccc(-c2cnc(C)c([C@H](OC(C)(C)C)C(=O)O)c2N2CCC(C)(C)CC2)n1 [Example 189, (S)-2-(tert-Butoxy)-2-(4′-(4,4-dimethylpiperidin-1-yl)-6-methoxy-6′-methyl-[2, 3′-bipyridin]-5′-yl)acetic acid] | 41 nM
Cc1nc(CN2CCC3(CCC3)CC2)c(-c2ccccc2)c(N2CCC(C)(C)CC2)c1[C@H](OC(C)(C)C)C(=O)O [Example 190, (2S)-2-[6-({7-Azaspiro[3.5]nonan-7-yl}methyl)-4-(4,4-dimethylpiperidin-1-yl)-2-methyl-5-phenylpyridin-3-yl]-2-(tert-butoxy)acetic acid] | 3 nM
